Where two headings read alike, the source gives them in different places.
Assays:
A2780 cells = assay: In-vitro cell proliferation assay (SRB), A2780 cells; format: cell-based; conditions: Homo sapiens, A2780, 72 h, A2780 cells, 72 hours, read-out: A2780 IC50
How it was run: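 Growth inhibition was derived from background-corrected SRB absorbance (570 nm), measured on cells fixed in 6% TCA after three days of compound treatment under 5% CO2 at 37° C.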

NAMPT = molecular target: T1, NAMPT (Homo sapiens, UniProt P43490); assay: Biochemical inhibition assay: NAMPT enzymatic reaction, NMN quantified by mass spectrometry; conditions: read-out: Biochem IC50
T1 construct: His tag; host or cells: E. coli
How it was run: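 Inhibition of E. coli-expressed His-tagged human NAMPT, measured as NMN formation by mass spectrometry after a 30 min room-temperature reaction containing 1 μM NAM, 100 μM PRPP and 2.5 mM ATP.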

T1 sequence (P43490 whole entry): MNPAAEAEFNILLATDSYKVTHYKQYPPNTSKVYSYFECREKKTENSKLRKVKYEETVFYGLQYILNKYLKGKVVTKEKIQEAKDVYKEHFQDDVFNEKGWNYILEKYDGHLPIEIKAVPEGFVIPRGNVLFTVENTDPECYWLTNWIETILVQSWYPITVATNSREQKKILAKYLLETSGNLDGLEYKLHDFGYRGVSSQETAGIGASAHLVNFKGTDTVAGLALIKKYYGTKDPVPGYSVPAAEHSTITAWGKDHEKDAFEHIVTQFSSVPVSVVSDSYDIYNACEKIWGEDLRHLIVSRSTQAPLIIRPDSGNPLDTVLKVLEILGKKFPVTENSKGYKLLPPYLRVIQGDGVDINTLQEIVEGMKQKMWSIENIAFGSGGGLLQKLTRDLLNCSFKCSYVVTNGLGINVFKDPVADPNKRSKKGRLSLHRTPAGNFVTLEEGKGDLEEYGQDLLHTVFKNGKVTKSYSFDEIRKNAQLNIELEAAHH

SMILES	IC50 (A2780 cells; SRB) [nM]	IC50 (NAMPT; NAMPT enzymatic assay) [nM]	IC50 (NAMPT; NAMPT enzymatic reaction) [nM]	IC50 (A2780 cells; SRB assay) [nM]
COc1ccc2cc(S(=O)(=O)c3ccc(CNC(=O)c4cc5cnccc5[nH]4)cc3)ccc2c1 [N-{[4-(6-methoxynaphthalene-2-sulfonyl)phenyl]methyl}-1H-pyrrolo[3,2-c]pyridine-2-carboxamide]	5.1	9.9		
COc1cc(C)cc(S(=O)(=O)c2ccc(CNC(=O)c3cc4ccncc4s3)cc2)c1	0.8		2.4	
CC(C)Oc1ccc(S(=O)(=O)c2ccc(CNC(=O)c3cnc4[nH]ncc4c3)cc2)cc1 [N-[(4-{[4-(propan-2-yloxy)benzene]sulfonyl}phenyl)methyl]-1H-pyrazolo[3,4-b]pyridine-5-carboxamide]	6.6	8		
CCN(C)c1ncc(S(=O)(=O)c2ccc(CNC(=O)c3cc4ccncc4s3)cc2)s1 [N-[(4-{2-[ethyl(methyl)amino]-1,3-thiazole-5-sulfonyl}phenyl)methyl]thieno[2,3-c]pyridine-2-carboxamide]	1.2	2.9		
COc1cc(C)cc(S(=O)(=O)c2ccc(CNC(=O)c3cc4cnccc4[nH]3)cc2)c1OC [N-({4-[(2,3-dimethoxy-5-methylbenzene)sulfonyl]phenyl}methyl)-1H-pyrrolo[3,2-c]pyridine-2-carboxamide]	2	10		
CCNC(=O)c1cccc(S(=O)(=O)c2ccc(CNC(=O)c3cnc4nccn4c3)cc2)c1	65.5	3.1		
COc1cc(S(=O)(=O)c2ccc(CNC(=O)c3cnc4nccn4c3)cc2)ccc1C	1.7		1.3	
O=C(NCc1ccc(S(=O)(=O)c2cccc(CN3CCCCC3)c2)cc1)c1ccc2nccn2c1	3.5	9.1		
COc1ccc(C(C)=O)cc1S(=O)(=O)c1ccc(CNC(=O)c2cnc3nccn3c2)cc1	54.8		17.2	
O=C(NCc1ccc(S(=O)(=O)c2cccc3c2Oc2ccccc2S3)cc1)c1cc2ccncc2s1 [N-{[4-(phenoxathiine-4-sulfonyl)phenyl]methyl}thieno[2,3-c]pyridine-2-carboxamide]			4	1.7
COc1c(F)cccc1S(=O)(=O)c1ccc(CNC(=O)c2cnc3nccn3c2)cc1	100 to 1000		28.9	
CCOc1cccc(S(=O)(=O)c2ccc(CNC(=O)c3cc4ccncc4s3)cc2)c1F	12.9		3.7	
CCNC(=O)c1ccc(S(=O)(=O)c2ccc(CNC(=O)c3cc4ccncc4o3)cc2)cc1	6.7	4.5		
Cc1ccc(S(=O)(=O)c2ccc(CNC(=O)c3cnc4nccn4c3)cc2)cc1F	6.3		2.3	
Cc1nc(C)c(S(=O)(=O)c2ccc(CNC(=O)c3cc4ccncc4o3)cc2)s1 [N-{[4-(dimethyl-1,3-thiazole-5-sulfonyl)phenyl]methyl}furo[2,3-c]pyridine-2-carboxamide]	10.3	8.3		
O=C(NCc1ccc(S(=O)(=O)c2cccc3ccccc23)cc1)c1cnc2nccn2c1 [N-{[4-(naphthalene-1-sulfonyl)phenyl]methyl}imidazo[1,2-a]pyrimidine-6-carboxamide]	3.6	2.9		
CC(C)COc1ccc(S(=O)(=O)c2ccc(CNC(=O)c3cc4cnccc4[nH]3)cc2)cc1	9.4	12.7		
Cc1ccc(Cl)c(S(=O)(=O)c2ccc(CNC(=O)c3ccc4nccn4c3)cc2)c1	4.6		5.6	
O=C(NCc1ccc(S(=O)(=O)N2CC3CCC(C2)O3)cc1)c1cc2cnccc2[nH]1 [N-[(4-{8-oxa-3-azabicyclo[3.2.1]octane-3-sulfonyl}phenyl)methyl]-1H-pyrrolo[3,2-c]pyridine-2-carboxamide]			8	3
O=C(NCc1ccc(S(=O)(=O)c2ccccc2)cc1)c1ccc2ncncc2c1 [N-{[4-(benzenesulfonyl)phenyl]methyl}quinazoline-6-carboxamide]			16100	21300
O=C(NCc1ccc(S(=O)(=O)c2cccc(-c3ccc(F)c(F)c3)n2)cc1)c1cc2ccncc2o1 [N-({4-[6-(3,4-difluorophenyl)pyridine-2-sulfonyl]phenyl}methyl)furo[2,3-c]pyridine-2-carboxamide]	42.7	5		
Cc1ccccc1S(=O)(=O)c1ccc(CNC(=O)c2ccc3nccn3c2)cc1 [N-({4-[(2-methylbenzene)sulfonyl]phenyl}methyl)imidazo[1,2-a]pyridine-6-carboxamide]	91.2		66.9	
COc1ccc(S(=O)(=O)c2ccc(CNC(=O)c3cc4ccncc4s3)cc2)c(OC)c1 [N-({4-[(2,4-dimethoxybenzene)sulfonyl]phenyl}methyl)thieno[2,3-c]pyridine-2-carboxamide]	1.6		4.5	
Cc1ccc(S(=O)(=O)c2ccc(CNC(=O)c3cc4cnccc4[nH]3)cc2)cc1Cl	2.5		8.3	

SMILES	IC50 (A2780 cells; SRB) [nM]	IC50 (NAMPT; NAMPT enzymatic assay) [nM]	IC50 (NAMPT; NAMPT enzymatic reaction) [nM]	IC50 (A2780 cells; SRB assay) [nM]
COc1ccc(Cl)c(S(=O)(=O)c2ccc(CNC(=O)c3cc4ccncc4s3)cc2)c1	5.3		4.9	
CCCCOc1cc(F)ccc1S(=O)(=O)c1ccc(CNC(=O)c2cc3cnccc3[nH]2)cc1	5.5		31.1	
CC(=O)c1cccc(S(=O)(=O)c2ccc(CNC(=O)c3cnc4[nH]ncc4c3)cc2)c1	12.9		10	
CC(C)COc1cc(F)cc(S(=O)(=O)c2ccc(CNC(=O)c3cc4ccncc4o3)cc2)c1 [N-[(4-{[3-fluoro-5-(2-methylpropoxy)benzene]sulfonyl}phenyl)methyl]furo[2,3-c]pyridine-2-carboxamide]	12.9	10.3		
COc1c(C)cc(S(=O)(=O)c2ccc(CNC(=O)c3cc4ccncc4o3)cc2)cc1C	1.8		5.6	
O=C(NCc1ccc(S(=O)(=O)c2cccnc2N2CCOCC2)cc1)c1cc2ccncc2o1 [N-({4-[2-(morpholin-4-yl)pyridine-3-sulfonyl]phenyl}methyl)furo[2,3-c]pyridine-2-carboxamide]	60.5	32.5		
CCCCOc1ccc(S(=O)(=O)c2ccc(CNC(=O)c3cc4cnccc4[nH]3)cc2)cc1 [N-({4-[(4-butoxybenzene)sulfonyl]phenyl}methyl)-1H-pyrrolo[3,2-c]pyridine-2-carboxamide]	17.1		8.4	
Cc1cncc(S(=O)(=O)c2ccc(CNC(=O)c3cc4ccncc4s3)cc2)c1 [N-{[4-(5-methylpyridine-3-sulfonyl)phenyl]methyl}thieno[2,3-c]pyridine-2-carboxamide]	2.5	6		
O=C(NCc1ccc(S(=O)(=O)c2cccc(N3CCCCC3)c2)cc1)c1cc2cc(O)ccc2[nH]1	1000 to 10000		100 to 1000	
CCCOc1ccc(S(=O)(=O)c2ccc(CNC(=O)c3cc4ccncc4s3)cc2)cc1F	8.1		3.7	
COc1ccc(S(=O)(=O)c2ccc(CNC(=O)c3cc4ccncc4s3)cc2)c(C(F)(F)F)c1	13	21.7		
CC(C)COc1cc(F)cc(S(=O)(=O)c2ccc(CNC(=O)c3ccc4nccn4c3)cc2)c1	3	11.3		
CCCCOc1ccc(S(=O)(=O)c2ccc(CNC(=O)c3ccc4nccn4c3)cc2)cc1Cl	7.6		4.1	
COc1ccc(F)cc1S(=O)(=O)c1ccc(CNC(=O)c2ccc3nccn3c2)cc1 [N-({4-[(5-fluoro-2-methoxybenzene)sulfonyl]phenyl}methyl)imidazo[1,2-a]pyridine-6-carboxamide]	6.65		22	
Cc1ccc(S(=O)(=O)c2ccc(CNC(=O)c3cc4ccncc4s3)cc2)cc1F [N-({4-[(3-fluoro-4-methylbenzene)sulfonyl]phenyl}methyl)thieno[2,3-c]pyridine-2-carboxamide]			3	2.8
N#CC1(c2ccc(S(=O)(=O)c3ccc(CNC(=O)c4cc5ccncc5o4)cc3)cc2)CCCC1	6	8		
O=C(NCc1ccc(S(=O)(=O)c2csc(-c3cccc(F)c3)n2)cc1)c1cnc2nccn2c1 [N-({4-[2-(3-fluorophenyl)-1,3-thiazole-4-sulfonyl]phenyl}methyl)imidazo[1,2-a]pyrimidine-6-carboxamide]	6.9	1		
O=C(Nc1ccc(S(=O)(=O)c2ccccc2)cc1)c1cccnc1 [N-[4-(benzenesulfonyl)phenyl]pyridine-3-carboxamide]			12000	> 30000
Cc1cc(Cl)ccc1S(=O)(=O)c1ccc(CNC(=O)c2cnc3[nH]ncc3c2)cc1 [N-({4-[(4-chloro-2-methylbenzene)sulfonyl]phenyl}methyl)-1H-pyrazolo[3,4-b]pyridine-5-carboxamide]	58.7		77.5	
COc1ccc(F)cc1NS(=O)(=O)c1ccc(CNC(=O)c2ccc3ncccc3c2)cc1 [N-({4-[(5-fluoro-2-methoxyphenyl)sulfamoyl]phenyl}methyl)quinoline-6-carboxamide]	1000 to 10000	66		
O=C(NCc1ccc(S(=O)(=O)c2cc(F)cc(C(F)(F)F)c2)cc1)c1cnc2nccn2c1	1.1	5.9		
Cn1ncc2cccc(S(=O)(=O)c3ccc(CNC(=O)c4cnc5[nH]ncc5c4)cc3)c21 [N-{[4-(1-methyl-1H-indazole-7-sulfonyl)phenyl]methyl}-1H-pyrazolo[3,4-b]pyridine-5-carboxamide]	86.9	91.8		
Cc1c(F)cccc1S(=O)(=O)c1ccc(CNC(=O)c2cc3ccncc3o2)cc1	30.7		13.2	
Cc1ccc(C)c(S(=O)(=O)c2ccc(CNC(=O)c3cnc4[nH]ncc4c3)cc2)c1 [N-({4-[(2,5-dimethylbenzene)sulfonyl]phenyl}methyl)-1H-pyrazolo[3,4-b]pyridine-5-carboxamide]	17.2		20.9	

Reference: patent US12336981B2, “Compounds and compositions for the inhibition of NAMPT” (Valo Health, Inc., priority 2010, dated 2025)
